Test results as given in US20060069132A1, “Azolecarboxamide herbicides” (priority 2004, published 2006).
Read-outs that look alike come from different tables or passages of the source.

Columns and labels:
velvetleaf [1] = assay: Test A pre-/postemergence herbicide test; type: in vivo, Abutilon theophrasti; details: Abutilon theophrasti, 240 h; for pest or weed control at 500 g/ha: 500 g ai/ha; for pest or weed control at 2000 g/ha: 2000 g ai/ha
Summary of the method: (§1)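 Both application timings were run together: directed soil spray over freshly planted seeds in sandy loam, and runoff spray onto 2–10 cm seedlings. Evaluation after ~10 days in greenhouse used a 0–100 visual scale versus untreated controls.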

barnyardgrass = assay: Test A pre-/postemergence herbicide test; type: in vivo, Echinochloa crus-galli; details: Echinochloa crus-galli, 240 h; for pest or weed control at 500 g/ha: 500 g ai/ha; for pest or weed control at 2000 g/ha: 2000 g ai/ha
Summary of the method: as §1

corn = assay: Test C pre-/postemergence herbicide test; type: in vivo, Zea mays
Summary of the method: (§2)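 Emerged plants at the 1- to 4-leaf stage (2–18 cm), or freshly planted seeds, received test chemicals in a non-phytotoxic solvent mixture with surfactant. Response was visually scored against controls after 12 to 14 days in the greenhouse, on a 0 (no effect) to 100 (complete control) scale.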

cocklebur = assay: Test C pre-/postemergence herbicide test; type: in vivo, Xanthium strumarium
Summary of the method: as §2

[2] = tested on: smallflower umbrella sedge; assay: Test C flooded paddy test; type: in vivo, Cyperus difformis; details: Cyperus difformis
soybean = assay: Test C pre-/postemergence herbicide test; type: in vivo, Glycine max
Summary of the method: as §2

bermudagrass = assay: Test C pre-/postemergence herbicide test; type: in vivo, Cynodon dactylon
Summary of the method: as §2

rice = assay: Test C flooded paddy test; type: in vivo, Oryza sativa; details: Oryza sativa
Summary of the method: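 Postemergence sprays applied to plants 2 to 18 cm tall (1- to 4-leaf stage); paddy species grown to 2-leaf stage under flooding. After 12 to 14 days in greenhouse, visual rating versus untreated controls on 0–100 scale (0 no effect, 100 complete control).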

ducksalad = assay: Test C flooded paddy test; type: in vivo, Heteranthera limosa; details: Heteranthera limosa
morningglory = assay: Test A pre-/postemergence herbicide test; type: in vivo, Ipomoea spp.; details: Ipomoea, 240 h; for pest or weed control at 500 g/ha: 500 g ai/ha; for pest or weed control at 2000 g/ha: 2000 g ai/ha
Summary of the method: as §1

johnsongrass = assay: Test C pre-/postemergence herbicide test; type: in vivo, Sorghum halepense
Summary of the method: as §2

goosegrass = assay: Test C pre-/postemergence herbicide test; type: in vivo, Eleusine indica
Summary of the method: as §2

velvetleaf [3] = assay: Test C pre-/postemergence herbicide test; type: in vivo, Abutilon theophrasti
Summary of the method: as §2

[4] = post-emergence, Postemergence, 0 to 100 scale, 0 no effect, 100 complete control, read-out: Plant response rating, Velvetleaf
[5] = post-emergence, Postemergence, 0 to 100 scale, 0 no effect, 100 complete control, read-out: Plant response rating, Barnyardgrass
[6] = Preemergence, 500 g ai/ha, scale 0 to 100, 0 no effect, 100 complete control
[7] = post-emergence, Postemergence, 0 to 100 scale, 0 no effect, 100 complete control, read-out: Plant response rating, Morningglory

## CCn1nc(C(C)(C)C)cc1C(=O)Nc1cc(C(=O)N(C)C)ccc1F [Compound 6, N-[5-[(dimethylamino)carbonyl]-2-fluorophenyl]-3-(1,1-dimethylethyl)-1-ethyl-1H-pyrazole-5-carboxamide]
Velvetleaf [1]; [4]
  pest or weed control at 500 g/ha: 90%
  pest or weed control at 2000 g/ha: 95%
Velvetleaf [1]; pre-emergence, Preemergence, visual rating, 0 to 100 scale (0 no effect, 100 complete control), read-out: Velvetleaf plant response rating
  pest or weed control at 500 g/ha: 100%
Velvetleaf [1]; pre-emergence, Preemergence, 0 to 100 scale, 0 no effect, 100 complete control, read-out: Velvetleaf plant response rating
  pest or weed control at 2000 g/ha: 100%
barnyardgrass; [5]
  pest or weed control at 500 g/ha: 80%
  pest or weed control at 2000 g/ha: 90%
barnyardgrass; pre-emergence, Preemergence, visual rating, 0 to 100 scale (0 no effect, 100 complete control), read-out: Barnyardgrass plant response rating
  pest or weed control at 500 g/ha: 100%
barnyardgrass; pre-emergence, Preemergence, 0 to 100 scale, 0 no effect, 100 complete control, read-out: Barnyardgrass plant response rating
  pest or weed control at 2000 g/ha: 100%
corn; 62 g ai/ha, preemergence
  Plant response rating (0 = no effect, 100 = complete control), Corn: 60
corn; [6]
  Corn plant response rating: 80
corn; Zea mays, pre-emergence, 312 h, 125 g ai/ha, scale 0-100
  Corn plant response rating (crop injury, 0 = no effect, 100 = complete kill) at 125 g/ha: 60%
corn; Zea mays, pre-emergence, 312 h, 250 g ai/ha, scale 0 to 100 (0 no effect, 100 complete control), visual, 12 to 14 days
  Corn plant response rating (crop injury, 0 = no effect, 100 = complete kill) at 250 g/ha: 80%
cocklebur; 62 g ai/ha, preemergence
  Plant response rating (0 = no effect, 100 = complete control), Cocklebur: 60
cocklebur; Xanthium strumarium, pre-emergence, 312 h, 125 g ai/ha, scale 0-100, read-out: Plant response rating, Cocklebur
  pest or weed control at 125 g/ha: 100%
cocklebur; Xanthium strumarium, pre-emergence, 312 h, 250 g ai/ha, scale 0 to 100 (0 no effect, 100 complete control), visual, 12 to 14 days, read-out: Plant response rating, Cocklebur
  pest or weed control at 250 g/ha: 100%
cocklebur; Xanthium strumarium, pre-emergence, 312 h, Preemergence, 500 g ai/ha, scale 0 to 100, 0 no effect, 100 complete control, read-out: Cocklebur plant response rating
  pest or weed control at 500 g/ha: 100%
[2]; 62 g ai/ha, scale 0 to 100 (0 no effect, 100 complete control), read-out: Sedge, Umbrella plant response rating
  pest or weed control at 62 g/ha: 70%
[2]; 125 g ai/ha, scale of 0 to 100, 0 is no effect, 100 is complete control, read-out: Sedge, Umbrella plant response rating
  pest or weed control at 125 g/ha: 90%
[2]; 250 g ai/ha, visual rating after 12 to 14 days, scale 0 to 100 (0 no effect, 100 complete control), read-out: Plant response rating, Sedge, Umbrella
  pest or weed control at 250 g/ha: 90%
[2]; 500 g ai/ha, visual rating after 12 to 14 days, scale 0 to 100 (0 no effect, 100 complete control), read-out: Plant response rating, Sedge, Umbrella
  pest or weed control at 500 g/ha: 90%
soybean; 62 g ai/ha, preemergence
  Plant response rating (0 = no effect, 100 = complete control), Soybean: 70
soybean; Glycine max, pre-emergence, 250 g ai/ha, scale 0 to 100 (0 no effect, 100 complete control), visual, 12 to 14 days, read-out: Plant response rating, Soybean
  plant injury at 250 g/ha: 100%
soybean; [6]
  Soybean plant response rating: 100
bermudagrass; 62 g ai/ha, preemergence
  Plant response rating (0 = no effect, 100 = complete control), Bermudagrass: 80
bermudagrass; Cynodon dactylon, pre-emergence, 312 h, 125 g ai/ha, scale 0-100, read-out: Plant response rating, Bermudagrass
  pest or weed control at 125 g/ha: 90%
bermudagrass; Cynodon dactylon, pre-emergence, 312 h, 250 g ai/ha, scale 0 to 100 (0 no effect, 100 complete control), visual, 12 to 14 days, read-out: Plant response rating, Bermudagrass
  pest or weed control at 250 g/ha: 90%
bermudagrass; Cynodon dactylon, pre-emergence, 312 h, Preemergence, 500 g ai/ha, scale 0 to 100, 0 no effect, 100 complete control, read-out: Bermudagrass plant response rating
  pest or weed control at 500 g/ha: 90%
rice; 62 g ai/ha, scale 0 to 100 (0 no effect, 100 complete control), read-out: Rice plant response rating
  plant injury at 62 g/ha: 40%
rice; 125 g ai/ha, scale of 0 to 100, 0 is no effect, 100 is complete control, read-out: Rice plant response rating
  plant injury at 125 g/ha: 80%
rice; 250 g ai/ha, visual rating after 12 to 14 days, scale 0 to 100 (0 no effect, 100 complete control), read-out: Plant response rating, Rice
  plant injury at 250 g/ha: 80%
rice; 500 g ai/ha, visual rating after 12 to 14 days, scale 0 to 100 (0 no effect, 100 complete control), read-out: Plant response rating, Rice
  plant injury at 500 g/ha: 90%
ducksalad; 62 g ai/ha, scale 0 to 100 (0 no effect, 100 complete control), read-out: Ducksalad plant response rating
  pest or weed control at 62 g/ha: 80%
ducksalad; 125 g ai/ha, scale of 0 to 100, 0 is no effect, 100 is complete control, read-out: Ducksalad plant response rating
  pest or weed control at 125 g/ha: 90%
ducksalad; 250 g ai/ha, visual rating after 12 to 14 days, scale 0 to 100 (0 no effect, 100 complete control), read-out: Plant response rating, Ducksalad
  pest or weed control at 250 g/ha: 90%
ducksalad; 500 g ai/ha, visual rating after 12 to 14 days, scale 0 to 100 (0 no effect, 100 complete control), read-out: Plant response rating, Ducksalad
  pest or weed control at 500 g/ha: 100%
morningglory; [7]
  pest or weed control at 500 g/ha: 10%
  pest or weed control at 2000 g/ha: 30%
morningglory; pre-emergence, Preemergence, visual rating, 0 to 100 scale (0 no effect, 100 complete control), read-out: Morningglory plant response rating
  pest or weed control at 500 g/ha: 45%
morningglory; pre-emergence, Preemergence, 0 to 100 scale, 0 no effect, 100 complete control, read-out: Morningglory plant response rating
  pest or weed control at 2000 g/ha: 80%
johnsongrass; 62 g ai/ha, preemergence
  Plant response rating (0 = no effect, 100 = complete control), Johnsongrass: 70
johnsongrass; [6]
  Johnsongrass plant response rating: 100
johnsongrass; Sorghum halepense, pre-emergence, 125 g ai/ha, scale 0-100, read-out: Plant response rating, Johnsongrass
  pest or weed control at 125 g/ha: 90%
johnsongrass; Sorghum halepense, pre-emergence, 250 g ai/ha, scale 0 to 100 (0 no effect, 100 complete control), visual, 12 to 14 days, read-out: Plant response rating, Johnsongrass
  pest or weed control at 250 g/ha: 90%
goosegrass; 62 g ai/ha, preemergence
  Plant response rating (0 = no effect, 100 = complete control), Goosegrass: 85
goosegrass; Eleusine indica, pre-emergence, 312 h, 125 g ai/ha, scale 0-100, read-out: Plant response rating, Goosegrass
  pest or weed control at 125 g/ha: 100%
goosegrass; Eleusine indica, pre-emergence, 312 h, 250 g ai/ha, scale 0 to 100 (0 no effect, 100 complete control), visual, 12 to 14 days, read-out: Plant response rating, Goosegrass
  pest or weed control at 250 g/ha: 100%
goosegrass; [6]
  Goosegrass plant response rating: 100
Velvetleaf [3]; 62 g ai/ha, preemergence
  Plant response rating (0 = no effect, 100 = complete control), Velvetleaf: 40
Velvetleaf [3]; Abutilon theophrasti, pre-emergence, 250 g ai/ha, scale 0 to 100 (0 no effect, 100 complete control), visual, 12 to 14 days, read-out: Plant response rating, Velvetleaf
  pest or weed control at 250 g/ha: 100%
Velvetleaf [3]; [6]
  Velvetleaf plant response rating: 100
